From patent US10703746B2, “Mutant IDH1 inhibitors useful for treating cancer” (THE UNITED STATES OF AMERICA, AS REPRESENTED BY THE …, priority 2014, dated 2020)
One block for each compound: values may come before it.

What was measured:
IDH1 R132H = IDH1 R132H (Homo sapiens, UniProt O75874, R132H); experiment: IDH1 R132H enzymatic assay (NADPH depletion coupled to diaphorase/resazurin); format: biochemical; conditions: IDH1 R132H enzymatic inhibition, IC50 class
IDH1 R132C = IDH1 R132C (Homo sapiens, UniProt O75874, R132C); experiment: IDH1 R132C enzymatic assay (NADPH depletion coupled to diaphorase/resazurin); format: biochemical; conditions: IDH1 R132C enzymatic inhibition, IC50 class
Outline: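 NADPH depletion, read via diaphorase/resazurin coupling, after adding substrate at 0.6 mM α-KG and 0.012 mM NADPH. Beforehand, 0.00032 mg/mL enzyme sat with compound 30 min at room temperature in pH 6.5 potassium phosphate buffer with MgCl2, glycerol and BSA.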

Sequence of IDH1 R132C (O75874 whole entry R132C): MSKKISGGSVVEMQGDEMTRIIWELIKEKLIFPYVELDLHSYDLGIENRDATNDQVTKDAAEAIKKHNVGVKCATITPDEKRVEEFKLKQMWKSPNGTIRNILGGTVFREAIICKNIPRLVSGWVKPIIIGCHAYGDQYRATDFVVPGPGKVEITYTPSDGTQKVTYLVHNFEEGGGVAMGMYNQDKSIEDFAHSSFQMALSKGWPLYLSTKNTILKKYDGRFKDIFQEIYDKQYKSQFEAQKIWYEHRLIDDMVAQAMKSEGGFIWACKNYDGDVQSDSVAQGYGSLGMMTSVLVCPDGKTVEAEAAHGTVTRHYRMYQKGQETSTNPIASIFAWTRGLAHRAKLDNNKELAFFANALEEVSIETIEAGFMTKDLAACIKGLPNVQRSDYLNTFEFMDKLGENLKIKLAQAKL
Sequence of IDH1 R132H (O75874 whole entry R132H): as the sequence (O75874 whole entry R132C) above, with C132H counted along it

Structure (SMILES): CCc1cccc(CC)c1-n1c(CC(C)C)c(C(=O)N2CCNCC2)cc(-c2nc(-c3ccc(OC(C)C)cc3)c(C)s2)c1=O [Compound 257]
IC50 (IDH1 R132H): 0.3 to 1 µM | IC50 (IDH1 R132C): < 0.3 µM

Structure (SMILES): CCc1cccc(CC)c1-n1c(C)c(C(=O)N2CCCC2C(=O)O)cc(-c2nc(-c3ccc(Cl)cc3)cs2)c1=O (stereo not drawn) [Compound 258]
IC50 (IDH1 R132H): 1 to 5 µM | IC50 (IDH1 R132C): 1 to 5 µM

Structure (SMILES): CCc1cccc(CC)c1-n1c(C)c(C(=O)N2CCCC(C(=O)O)C2)cc(-c2nc(-c3ccc(Cl)cc3)cs2)c1=O (stereo not drawn) [Compound 259]
IC50 (IDH1 R132H): 5 to 20 µM | IC50 (IDH1 R132C): 5 to 20 µM

Structure (SMILES): CCc1cccc(CC)c1-n1c(C)c(C(=O)NCC(N)=O)cc(-c2nc(-c3ccc(Cl)cc3)cs2)c1=O [Compound 260]
IC50 (IDH1 R132H): 1 to 5 µM | IC50 (IDH1 R132C): 1 to 5 µM

Structure (SMILES): COc1ccc(OC)c(-n2c3c(cc(-n4cc(-c5ccccc5)nn4)c2=O)C(=O)CC(C)(C)C3)c1 [Compound 261]
IC50 (IDH1 R132H): 5 to 20 µM | IC50 (IDH1 R132C): 5 to 20 µM

Structure (SMILES): CCc1cccc(CC)c1-n1c(C)c(C(=O)NCCCO)cc(-c2nc(-c3ccc(Cl)cc3)cs2)c1=O [Compound 262]
IC50 (IDH1 R132H): 1 to 5 µM | IC50 (IDH1 R132C): 0.3 to 1 µM

Structure (SMILES): CCc1cccc(CC)c1-n1c(CC(C)C)c(C(=O)NC2CCNCC2)cc(-c2nc(-c3ccc(Cl)cc3)cs2)c1=O [Compound 263]
IC50 (IDH1 R132H): 0.3 to 1 µM | IC50 (IDH1 R132C): < 0.3 µM

Structure (SMILES): CCc1cccc(CC)c1-n1c(C(C)C)c(C(=O)N2CCN[C@H](C(=O)O)C2)cc(-c2nc(-c3ccc(Cl)cc3)cs2)c1=O [Compound 264]
IC50 (IDH1 R132H): 0.3 to 1 µM | IC50 (IDH1 R132C): < 0.3 µM

Structure (SMILES): CCc1cccc(CC)c1-n1c(CC(C)C)c(C(=O)N2CCNC[C@H]2C)cc(-c2nc(-c3ccc(Cl)cc3)cs2)c1=O [Compound 267]
IC50 (IDH1 R132H): 0.3 to 1 µM | IC50 (IDH1 R132C): < 0.3 µM

Structure (SMILES): CCc1cccc(CC)c1-n1c(C)c(C(=O)NC2CCCCC2O)cc(-c2nc(-c3ccc(Cl)cc3)cs2)c1=O (stereo not drawn) [Compound 270]
IC50 (IDH1 R132H): 1 to 5 µM | IC50 (IDH1 R132C): 1 to 5 µM

Structure (SMILES): CCc1cccc(CC)c1-n1c(CC(C)C)c(C(=O)N2CCNCC2CO)cc(-c2nc(-c3ccc(Cl)cc3)cs2)c1=O (stereo not drawn) [Compound 272]
IC50 (IDH1 R132H): 0.3 to 1 µM | IC50 (IDH1 R132C): < 0.3 µM

Structure (SMILES): CCc1cccc(CC)c1-n1c(CC(C)C)c(C(=O)N2CCNC(C)(CO)C2)cc(-c2nc(-c3ccc(Cl)cc3)cs2)c1=O (stereo not drawn) [Compound 273]
IC50 (IDH1 R132H): 0.3 to 1 µM | IC50 (IDH1 R132C): < 0.3 µM

Structure (SMILES): CCc1cccc(CC)c1-n1c(CC(C)C)c(C(=O)N2CCNCC2(C)C)cc(-c2nc(-c3ccc(Cl)cc3)cs2)c1=O [Compound 274]
IC50 (IDH1 R132H): 0.3 to 1 µM | IC50 (IDH1 R132C): < 0.3 µM

Structure (SMILES): CCc1cccc(CC)c1-n1c(COC)c(C(=O)N2CCNCC2)cc(-c2nc(-c3ccc(Cl)cc3)cs2)c1=O [Compound 275]
IC50 (IDH1 R132H): < 0.3 µM | IC50 (IDH1 R132C): < 0.3 µM

Structure (SMILES): CCc1cccc(CC)c1-n1c(CC(C)C)c(C(=O)NC[C@@H](C)O)cc(-c2nc(-c3ccc(Cl)cc3)cs2)c1=O [Compound 276]
IC50 (IDH1 R132H): 0.3 to 1 µM | IC50 (IDH1 R132C): < 0.3 µM

Structure (SMILES): CCc1cccc(CC)c1-n1c(CCOC)c(C(=O)N2CCNCC2)cc(-c2nc(-c3ccc(Cl)cc3)cs2)c1=O [Compound 278]
IC50 (IDH1 R132H): < 0.3 µM | IC50 (IDH1 R132C): < 0.3 µM

Structure (SMILES): CCc1cccc(CC)c1-n1c(CC(C)C)c(C(=O)N2CCN[C@H](CO)C2)cc(-c2nc(-c3ccc(Cl)cc3)cs2)c1=O [Compound 283]
IC50 (IDH1 R132H): 0.3 to 1 µM | IC50 (IDH1 R132C): < 0.3 µM

Continued, values first:

IC50 (IDH1 R132H): 1 to 5 µM | IC50 (IDH1 R132C): 1 to 5 µM
Structure (SMILES): CCc1cccc(CC)c1-n1c(C)c(C(=O)NC2CC2)cc(-c2nc(-c3ccc(Cl)cc3)cs2)c1=O [Compound 265]

IC50 (IDH1 R132H): > 20 µM | IC50 (IDH1 R132C): > 20 µM
Structure (SMILES): COc1ccc(OC)c(-n2c3c(cc(-c4ncc(-c5ccc(Cl)cc5)s4)c2=O)C(=O)CC(C)(C)C3)c1 [Compound 266]

IC50 (IDH1 R132H): > 20 µM | IC50 (IDH1 R132C): 5 to 20 µM
Structure (SMILES): CCc1cccc(CC)c1-n1c(C)c(C(=O)OC)cc(-c2nc(-c3ccc(Cl)cc3)cs2)c1=O [Compound 268, methyl 5-(4-(4-chlorophenyl)thiazol-2-yl)-1-(2,6-diethylphenyl)-2-methyl-6-oxo-1,6-dihydropyridine-3-carboxylate]

IC50 (IDH1 R132H): 5 to 20 µM | IC50 (IDH1 R132C): 1 to 5 µM
Structure (SMILES): CC1(C)CC(=O)c2cc(-c3nc(-c4ccc(Cl)cc4)cs3)c(=O)n(-c3ccccc3CO)c2C1 [Compound 269]

IC50 (IDH1 R132H): 1 to 5 µM | IC50 (IDH1 R132C): 1 to 5 µM
Structure (SMILES): CCc1cccc(CC)c1-n1c(C)c(C(=O)N(C)C)cc(-c2nc(-c3ccc(Cl)cc3)cs2)c1=O [Compound 271]

IC50 (IDH1 R132H): 1 to 5 µM | IC50 (IDH1 R132C): 1 to 5 µM
Structure (SMILES): Cc1noc(-n2c3c(cc(-c4nc(-c5ccc(Cl)cc5)cs4)c2=O)C(=O)CC(C)(C)C3)c1C [Compound 277]

IC50 (IDH1 R132H): 1 to 5 µM | IC50 (IDH1 R132C): 0.3 to 1 µM
Structure (SMILES): CCc1cccc(C)c1-n1c2c(cc(-c3nc(-c4ccc(Cl)cc4)cs3)c1=O)C(=O)CC(C)(C)C2 [Compound 279]

IC50 (IDH1 R132H): 5 to 20 µM | IC50 (IDH1 R132C): 5 to 20 µM
Structure (SMILES): COc1ccc(OC)c(-n2c3c(cc(-c4nc(-c5ccc(Cl)cc5)cs4)c2=O)C(=O)CNC3)c1 [Compound 280]

IC50 (IDH1 R132H): 5 to 20 µM | IC50 (IDH1 R132C): 5 to 20 µM
Structure (SMILES): CCc1cccc(CC)c1-n1c2c(cc(-c3nc(-c4ccc(O)cc4)cs3)c1=O)C(=O)CC(C)(C)C2 [Compound 281]

IC50 (IDH1 R132H): 0.3 to 1 µM | IC50 (IDH1 R132C): < 0.3 µM
Structure (SMILES): CCc1cccc(CC)c1-n1c2c(cc(-c3nc(-c4ccc(Cl)cc4)cs3)c1=O)C(=O)CC(C)(C)C2 [Compound 282]
